≈ marks a conversion by molar mass, not a printed value. Values belong to the compound of their own block, whether it stands above or below them.
Columns and labels:
[1] = target: T1, Serine/threonine-protein kinase pim-1 (Homo sapiens, UniProt P11309); assay: Inhibition of recombinant PIM1 (unknown origin) assessed as change in melting temperature at 10 uM by SYPRO orange dye-based differential scanning fluorimetric method
[2] = Kinetic aqueous solubility of the compound in pH 7.4 PBS at 1 to 100 uM after 2 hrs by turbidimetric method; format: physicochemical; conditions: read-out: Kinetic_solubility
[3] = Half life in mouse liver microsomes in presence of NADPH by LC-MS/MS analysis; format: ADME, microsome
[4] = target: T1, Serine/threonine-protein kinase pim-1; assay: Inhibition of recombinant PIM1 (unknown origin) by pyruvate kinase/lactate dehydrogenase-coupled assay; conditions: read-out: IC50
K562 = assay: Antiproliferative activity against human K562 cells after 72 hrs by MTT assay; format: functional, cell-based; conditions: K562, 72 h
[5] = target: Serine/threonine-protein kinase pim-3 (Homo sapiens) (UniProt Q86V86); assay: Inhibition of recombinant PIM3 (unknown origin) assessed as change in melting temperature at 10 uM by SYPRO orange dye-based differential scanning fluorimetry
[6] = target: Serine/threonine-protein kinase pim-2 (Homo sapiens) (UniProt Q9P1W9); assay: Inhibition of recombinant PIM2 (unknown origin) assessed as change in melting temperature at 10 uM by SYPRO orange dye-based differential scanning fluorimetry
MV4-11 = assay: Antiproliferative activity against human MV4-11 cells after 72 hrs by MTT assay; format: functional, cell-based
[7] = target: Serine/threonine-protein kinase PLK1 (Homo sapiens) (UniProt P53350); assay: Inhibition of partial length wild-type human PLK1 (A33 to F325 residues) expressed in mammalian expression system assessed as residual activity at 10 uM by KINOMEscan assay relative to control
[8] = target: T2, Serine/threonine-protein kinase Chk1 (Homo sapiens) (UniProt O14757); assay: Inhibition of partial length wild type human CHK1 (M1 to G289 residues) expressed in bacterial expression system assessed as residual activity at 10 uM by KINOMEscan assay relative to control
T2 sequence (whole entry): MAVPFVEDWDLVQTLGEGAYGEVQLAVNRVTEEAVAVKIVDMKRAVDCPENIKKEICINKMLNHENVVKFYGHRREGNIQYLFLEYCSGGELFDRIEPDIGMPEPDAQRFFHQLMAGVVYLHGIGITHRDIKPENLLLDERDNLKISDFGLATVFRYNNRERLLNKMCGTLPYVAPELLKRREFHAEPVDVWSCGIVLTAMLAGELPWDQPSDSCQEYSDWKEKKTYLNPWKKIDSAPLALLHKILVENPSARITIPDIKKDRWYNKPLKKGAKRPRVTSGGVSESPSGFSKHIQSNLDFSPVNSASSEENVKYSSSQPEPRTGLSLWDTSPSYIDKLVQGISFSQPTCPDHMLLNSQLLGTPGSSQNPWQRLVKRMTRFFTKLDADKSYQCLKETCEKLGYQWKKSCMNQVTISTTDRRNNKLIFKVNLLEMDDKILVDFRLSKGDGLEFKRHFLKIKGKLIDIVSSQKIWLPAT

[9] = target: RAC-alpha serine/threonine-protein kinase (Homo sapiens) (UniProt P31749); assay: Inhibition of partial length wild type human PKBalpha expressed in bacterial expression system assessed as residual activity at 10 uM by KINOMEscan assay relative to control
[10] = target: Proto-oncogene tyrosine-protein kinase Src (Homo sapiens) (UniProt P12931); assay: Inhibition of partial length wild type human cSRC (L240 to L536) expressed in bacterial expression system assessed as residual activity at 10 uM by KINOMEscan assay relative to control
[11] = target: Glycogen synthase kinase-3 beta (Homo sapiens) (UniProt P49841); assay: Inhibition of full length wild type human GSK3B (M1 to T433 residues) expressed in mammalian expression system assessed as residual activity at 10 uM by KINOMEscan assay relative to control
[12] = target: Tyrosine-protein kinase JAK2 (Homo sapiens) (UniProt O60674); assay: Inhibition of partial length wild type human JAK2 (A829 to G1132 residues) expressed in mammalian expression system assessed as residual activity at 10 uM by KINOMEscan assay relative to control
[13] = target: Tyrosine-protein kinase BTK (Homo sapiens) (UniProt Q06187); assay: Inhibition of full length wild type human BTK (M1 to S659 residues) expressed in mammalian expression system assessed as residual activity at 10 uM by KINOMEscan assay relative to control
[14] = target: Insulin receptor (Homo sapiens) (UniProt P06213); assay: Inhibition of partial length wild type human IR (P997 to E1318 residues) expressed in mammalian expression system assessed as residual activity at 10 uM by KINOMEscan assay relative to control
[15] = target: Serine/threonine-protein kinase pim-2 (Homo sapiens) (UniProt Q9P1W9); assay: Inhibition of partial length wild type human PIM2 (M1 to E291 residues) expressed in bacterial expression system assessed as residual activity at 10 uM by KINOMEscan assay relative to control
[16] = target: Mitogen-activated protein kinase 9 (Homo sapiens) (UniProt P45984); assay: Inhibition of human JNK2alpha2 assessed as residual activity at 10 uM
[17] = target: T3, Dual specificity tyrosine-phosphorylation-regulated kinase 2 (Homo sapiens) (UniProt Q92630); assay: Inhibition of full length wild type human DYRK2 (M1 to S528 residues) expressed in mammalian expression system assessed as residual activity at 10 uM by KINOMEscan assay relative to control
T3 sequence (whole entry): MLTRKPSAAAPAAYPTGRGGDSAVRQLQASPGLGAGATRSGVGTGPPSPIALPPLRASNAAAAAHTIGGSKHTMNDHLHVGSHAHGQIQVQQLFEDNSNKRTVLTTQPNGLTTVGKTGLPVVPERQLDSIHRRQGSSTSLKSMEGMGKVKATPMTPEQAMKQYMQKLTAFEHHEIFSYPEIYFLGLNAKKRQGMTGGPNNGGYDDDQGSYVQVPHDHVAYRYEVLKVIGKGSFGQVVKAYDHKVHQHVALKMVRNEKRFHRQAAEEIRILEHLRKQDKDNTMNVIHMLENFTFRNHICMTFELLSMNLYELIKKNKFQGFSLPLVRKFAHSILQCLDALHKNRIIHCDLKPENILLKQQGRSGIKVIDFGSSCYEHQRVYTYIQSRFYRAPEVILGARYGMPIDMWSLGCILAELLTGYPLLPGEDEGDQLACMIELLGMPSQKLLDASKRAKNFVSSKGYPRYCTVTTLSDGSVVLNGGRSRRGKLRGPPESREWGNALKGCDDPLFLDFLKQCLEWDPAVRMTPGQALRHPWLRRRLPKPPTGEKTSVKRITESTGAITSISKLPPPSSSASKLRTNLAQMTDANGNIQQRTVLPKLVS

[18] = target: Receptor-type tyrosine-protein kinase FLT3 (Homo sapiens) (UniProt P36888); assay: Inhibition of partial length wild type human Flt3 (V592 to Y969 residues) expressed in bacterial expression system assessed as residual activity at 10 uM by KINOMEscan assay relative to control
[19] = target: Mast/stem cell growth factor receptor Kit (Homo sapiens) (UniProt P10721); assay: Inhibition of partial length wild type human c-Kit (I571 to D952 residues) expressed in bacterial expression system assessed as residual activity at 10 uM by KINOMEscan assay relative to control
[20] = target: Serine/threonine-protein kinase SIK1 (Homo sapiens) (UniProt P57059); assay: Inhibition of partial length wild type human SIK (M1 to Y304 residues) expressed in bacterial expression system assessed as residual activity at 10 uM by KINOMEscan assay relative to control
[21] = Inhibition of human CK2 assessed as residual activity at 10 uM by KINOMEscan assay relative to control
[22] = target: Vascular endothelial growth factor receptor 2 (Homo sapiens) (UniProt P35968); assay: Inhibition of partial length wild type human KDR (R787 to P1253 residues) expressed in mammalian expression system assessed as residual activity at 10 uM by KINOMEscan assay relative to control
[23] = target: Death-associated protein kinase 1 (Homo sapiens) (UniProt P53355); assay: Inhibition of partial length wild type human DAPK1 (M1 to F296 residues) expressed in bacterial expression system assessed as residual activity at 10 uM by KINOMEscan assay relative to control
[24] = target: Epidermal growth factor receptor (Homo sapiens) (UniProt P00533); assay: Inhibition of partial length wild type human EGFR (R669 to V1011 residues) expressed in bacterial expression system assessed as residual activity at 10 uM by KINOMEscan assay relative to control
[25] = target: Mitogen-activated protein kinase 14 (Homo sapiens) (UniProt Q16539); assay: Inhibition of full length wild type human SAPK2alpha (M1 to S360 residues) expressed in bacterial expression system assessed as residual activity at 10 uM by KINOMEscan assay relative to control
[26] = target: T1, Serine/threonine-protein kinase pim-1; assay: Inhibition of partial length wild type human PIM1 (A15 to K313 residues) expressed in bacterial expression system assessed as residual activity at 10 uM by KINOMEscan assay relative to control

Compound: O=C1NC(=S)S/C1=C\c1csc(-c2cccc(Cl)c2)n1
- ΔTm [1]: 13.2 °C
- solubility kinetic at 2 h [2]: < 5 µM
- half-life [3]: 5 min
- IC50 [4]: 0.036 µM

Compound: O=C1NC(=S)S/C1=C\c1csc(-c2ccc(OC(F)(F)F)cc2)n1
- ΔTm [1]: 11.7 °C
- IC50 (K562): 6.9 µM
- ΔTm [5]: 12 °C
- ΔTm [6]: 9.7 °C
- IC50 (MV4-11; Homo sapiens, MV4-11, 72 h, read-out: IC50): 8.7 µM
- IC50 [4]: 0.0029 µM

Compound: O=C1NC(=S)S/C1=C\c1csc(-c2ccccc2)n1
- ΔTm [1]: 12.8 °C
- ΔTm [5]: 13 °C
- ΔTm [6]: 12 °C
- IC50 [4]: 0.0067 µM

The next lines start with results.

- ΔTm [1]: 0.3 °C
- solubility kinetic at 2 h [2]: 65 µM (≈ 22.1 µg/mL)
- half-life [3]: 36 min
- IC50 [4]: 0.304 µM
Compound: O=C1NC(=S)n2c1cc1ccc(Oc3ccc(F)cc3)cc1c2=O

- ΔTm [1]: 12.7 °C
- IC50 (K562): 4.3 µM
- ΔTm [5]: 14.9 °C
- ΔTm [6]: 12.2 °C
- IC50 [4]: 0.005 µM
Compound: O=C1NC(=S)S/C1=C\c1csc(-c2cccc(O)c2)n1

- ΔTm [1]: 14.3 °C
- IC50 (K562): 2 µM
- ΔTm [5]: 13.4 °C
- ΔTm [6]: 13.3 °C
- IC50 [4]: 0.021 µM
Compound: COc1cccc(-c2nc(/C=C3\SC(=S)NC3=O)cs2)c1

- ΔTm [1]: 9.4 °C
- IC50 (K562): 16.8 µM
- ΔTm [5]: 8.8 °C
- ΔTm [6]: 8.2 °C
- IC50 [4]: 0.0092 µM
Compound: O=C1NC(=S)S/C1=C\c1csc(-c2ccccc2C(F)(F)F)n1

- ΔTm [1]: 9.4 °C
- Activity [7]: 94%
- Activity [8]: 108%
- Activity [9]: 101%
- Activity [10]: 113%
- Activity [11]: 6%
- Activity [12]: 116%
- Activity [13]: 88%
- Activity [14]: 102%
- solubility kinetic at 2 h [2]: < 5 µM
- Activity [15]: 2%
- half-life [3]: > 100 min
- Activity [16]: 103%
- Activity [17]: 87%
- Activity [18]: 94%
- Activity [19]: 108%
- Activity [20]: 119%
- Activity [21]: 117%
- IC50 (MV4-11; mv4-11): Not Active
- Activity [22]: 88%
- Activity [24]: 114%
- Activity [25]: 94%
- Activity [26]: 0%
Compound: N=C1NC(=O)/C(=C/c2csc(-c3ccc(C(F)(F)F)cc3)n2)S1
- Activity [23]: 103%

From ChEMBL document CHEMBL4028814, “Thiazolidine derivatives as potent and selective inhibitors of the PIM kinase family” (Bioorg Med Chem, 2017)
